The subject of the test is Glioma cells. Put plainly: Glioma cell kill (presto blue) after d9-THC pre-treatment and PDT with 14C PDC. Particulars: 40 μM d9-THC, no PDT. The class given is cell-based. Here is the method:
Glioma cells were treated with delta9-tetrahydrocannabinol (“d9-THC”) for 24 hours prior to treatment with 14C PDC and light activated. Five concentrations of d9-THC were used (0, 5, 10, 20, 40 μM). As a significant effect was only observed with a d9-THC concentration of 40 μM, only the results obtained at this concentration are shown (see FIG. 1). After 24 hours, cells were treated with 14C PDC for 4 hours, PDT was performed using green light (20 J/cm^2) and plates were incubated overnight for presto blue on the following day. The PDT dose used was decreased to induce 10-15% cell kill in order to highlight any additive/synergistic effect of the combination that might otherwise be masked if a higher dose had been used.
Absolute cell kill values are shown with error bars representing standard deviations between wells. The hypothetical additive effect represents the hypothetical cell kill percentage had the combined effect merely been additive. Reading from left to right in FIG. 1: the first bar is the control; the second bar is d9-THC only; the third bar is light activated 14C PDC only; the fourth bar is hypothetical cell kill percentage of d9-THC combined with 14C PDC light activated; and the fifth bar is PDT (light activated 14C PDC) combined with the tested cannabinoid. PDT alone (light activated 14C PDC) induced 10% cell kill. 40 μM of d9-THC induced 10% cell kill.

Consider `CCCCCc1cc(O)c2c(c1)OC(C)(C)[C@@H]1CCC(C)=C[C@@H]21` [d9-THC, delta9-tetrahydrocannabinol], for which the “cell kill, d9-THC only” value came out at 10%.

(Values after US11793818B2, “Method for treating conditions associated with hyperproliferating cells comprising combined administration of a cannabinoid receptor agonist and radiation therapy” (Theralase Technologies, Inc., priority 2018, dated 2023).)
